Test results from US5585492A, “LTA4 Hydrolase inhibitors” (priority 1994, dated 1996).
pIC50: −log10 of the molar value.

system: LTB4 production in human blood; assay: Inhibition of Calcium Ionophore-Induced LTB4 Production in Human Blood (HWB); format: cell-based; conditions: Homo sapiens, human whole blood, A23187 20 mcg/ml; read-out: Inhibition of Calcium Ionophore-Induced LTB4 Production in Human Blood IC50 HWB
Method: One or more concentrations of the leukotriene A4 hydrolass inhibitor compounds being tested were prepared (diluted in DMSO) and 2 μl added and gently mixed with the diluted whole blood. After incubating for 15 minutes at 37° C. in a humidified incubator, calcium ionophore A23187 (Sigma Chemical Co., St. Louis, Mo.) was added to a final concentration of 20 mcg/ml and the incubation continued under the same conditions for an additional 10 minutes to allow LTB4 formation. The reaction was terminated by centrifugation (833 g, 10 minutes at 4° C.) and supernatant were analyzed for LTB4 and thromboxane by commercially available enzyme-linked immunoassays (Caymen Chemical Co., Ann Arbor, Mich.) according to the manufacturer's instructions. The IC50 of each test compound was determined from the amount of inhibition of LTB4 production as compared to an essentially identical assay in which no inhibitor compound was present.

pIC50	SMILES
5.49	NC(=O)C1CCN(CC2CCc3cc(Cc4ccccc4)ccc3O2)CC1 (stereo not drawn) [Example 293]
5.48	Cc1ccc(COc2ccc(OCCN3CCCC3)cc2)cc1 [Example 212]
6.21	O=C(CCl)NC1CCN(CCOc2ccc(Cc3ccccc3)cc2)C1 (stereo not drawn) [Example 454]
6.29	CNC(=O)C1CCN(CC2Cc3cc(Oc4ccccc4)ccc3O2)CC1 (stereo not drawn) [Example 296]
6.27	c1ccc(Oc2ccc(OCCn3cccc4ncnc3-4)cc2)cc1 [Example 348C]
6.47	c1ccc(Cc2ccc(OCCCn3ccc4ncnc-4c3)cc2)cc1 [Example 356C]
5.24	c1ccc(Oc2ccc(OCCn3cnc4cccnc43)cc2)cc1 [Example 348A]
6.47	CC(=O)N1CCN(CC2Cc3cc(Cc4ccccc4)ccc3O2)CC1 (stereo not drawn) [Example 294]
5.86	CCOC(=O)C1CCN(CC2Cc3cc(Cc4ccccc4)ccc3O2)CC1 (stereo not drawn) [Example 282]
5.62	c1ccc(Cc2cnc3c(c2)CC(CN2CCCC2)O3)cc1 (stereo not drawn) [Example 287]
6.02	c1ccc(Oc2ccc(OCCCn3cnc4ncccc43)cc2)cc1 [Example 350B]
6.08	O=c1[nH]c(C2CCN(CCOc3ccc(Cc4ccccc4)cc3)CC2)no1 [Example 448]
4.87	c1ccc(Oc2ccc(OCCn3cnc4ccccc43)cc2)cc1 [Example 344]
7.07	O=C(O)C1C2CN(CCOc3ccc(Cc4ccccc4)cc3)CC21 (stereo not drawn) [Example 435]
5.93	CCOC(=O)C1CCCN(CCCOc2ccc(Cc3ccccc3)cc2)C1 (stereo not drawn) [Example 269]
5.57	c1ccc(Oc2ccc(OCCCn3cnc4ccncc43)cc2)cc1 [Example 351A]
6.19	CC(=O)N[C@H]1C[C@@H](C)N(CCOc2ccc(Cc3ccccc3)cc2)[C@@H](C)C1 [Example 315]
6.68	OCC1CCCN1CCOc1ccc(Cc2ccccc2)cc1 (stereo not drawn) [Example 385]
5.33	COc1ccc(COc2ccc(OCCN3CCCC3)cc2)cc1 [Example 213]
5.78	c1ccc(Oc2ccc(OCCCn3cccc4ncnc3-4)cc2)cc1 [Example 350C]

pIC50	SMILES
5.00	c1ccc2c(COc3ccc(OCCN4CCCC4)cc3)cccc2c1 [Example 214]
5.24	c1ccc(COc2ccc(OCCn3cnc4cnccc43)cc2)cc1 [Example 347B]
6.15	C#CC(CC(=O)OCC)NCCCOc1ccc(Cc2ccccc2)cc1 (stereo not drawn) [Example 407]
6.02	NC(=O)C1CCN(CC2Cc3cc(Cc4ccccc4)cnc3O2)CC1 (stereo not drawn) [Example 288]
6.05	CC1CC(C#N)CCN1CCOc1ccc(Cc2ccccc2)cc1 (stereo not drawn) [Example 444]
5.38	Cc1cc(Cc2ccccc2)ccc1OCCN1CCCC1 [Example 117]
5.58	O=C(CCNCCOc1ccc(Cc2ccccc2)cc1)OCc1ccccc1 [Example 266]
6.65	CC(=O)N[C@@H]1CCN(CCOc2ccc(Cc3ccccc3)cc2)[C@@H](C)C1 (relative stereo) [Example 467]
6.88	C[C@@H]1C[C@H](C(N)=O)C[C@H](C)N1CCOc1ccc(Cc2ccccc2)cc1 [Example 316]
5.71	CC(C)(O)CCNCCCOc1ccc(Cc2ccccc2)cc1 [Example 416]
5.45	c1ccc(COc2ccc(OCCn3cnc4ncccc43)cc2)cc1 [Example 346B]
6.92	NNC(=O)C1CCN(CCOc2ccc(Cc3ccccc3)cc2)CC1 [Example 419]
6.72	c1csc(COc2ccc(OCCN3CCCC3)cc2)c1 [Example 215]
5.86	NC(=S)N1CCN(CCOc2ccc(Cc3ccccc3)cc2)CC1 [Example 458]
6.00	c1cc(OCCN2CCCC2)ccc1Cc1ccc2c(c1)OCO2 [Example 130]
6.27	NC(=O)C1(O)CCN(CCOc2ccc(Cc3ccccc3)cc2)CC1 [Example 427]
5.40	c1ccc(Cc2ccc(OC(Cc3ccccc3)CN3CCCC3)cc2)cc1 (stereo not drawn) [Example 406]
4.60	c1ccc2nc(Cc3ccc(OCCN4CCCC4)cc3)ccc2c1 [Example 131]
6.80	NC(=NO)C1CCN(CC2Cc3cc(Cc4ccccc4)ccc3O2)CC1 (stereo not drawn) [Example 446]
5.06	CC(C)(C)OC(=O)C1CCN(CCCOc2ccc(Cc3ccccc3)cc2)CC1 [Example 263]

pIC50	SMILES
5.37	c1ccc(Oc2ccc(NCCN3CCCC3)cc2)cc1 [Example 71]
5.48	Brc1ccc(COc2ccc(OCCN3CCCC3)cc2)cc1 [Example 203]
6.82	c1ccc(Cc2ccc3c(c2)CC(Cn2cnc4ccncc42)O3)cc1 (stereo not drawn) [Example 358A]
6.54	Clc1cccc(Cc2ccc(OCCN3CCCC3)cc2)c1 [Example 143]
6.70	OC1CCN(CCOc2ccc(Cc3ccccc3)cc2)CC1 [Example 247]
6.49	c1ccc(Oc2ccc(OCCn3cnc4cnccc43)cc2)cc1 [Example 349B]
6.05	COc1ccc(Cc2ccc(OCCN3CCCC3)cc2)cc1F [Example 144]
7.28	c1ccc(Cc2ccc3c(c2)CCC(CN2CCCC2)O3)cc1 (stereo not drawn) [Example 292]
6.08	CCOC(=O)CC1CCN(CCOc2ccc(Cc3ccccc3)cc2)CC1 [Example 301]
6.44	CC1CC(C(N)=NO)CCN1CCOc1ccc(Cc2ccccc2)cc1 (stereo not drawn) [Example 445]
5.17	c1ccc(COc2ccc(OCCn3cccc4ncnc3-4)cc2)cc1 [Example 346C]
6.68	Fc1ccc(Oc2ccc(OCCn3ccc4ncnc-4c3)cc2)cc1 [Example 355C]
5.67	Clc1ccccc1COc1ccc(OCCN2CCCC2)cc1 [Example 208]
5.38	c1ccc(Cc2ccc3c(c2)CC(Cn2cccc4ncnc2-4)O3)cc1 (stereo not drawn) [Example 359C]
6.85	c1ccc(Cc2ccc(OCCN3CC4CCC3CC4)cc2)cc1 [Example 500]
5.00	COc1ccc(Cc2ccc(OCCN3CCC(C(N)=O)CC3)cc2)cc1 [Example 232]
5.75	CCOC(=O)C1CCN(CCOc2ccc(Cc3cccc(F)c3)cc2)CC1 [Example 309]
6.25	c1ccc(Oc2ccc(OCCn3cnc4ncccc43)cc2)cc1 [Example 348B]
5.60	CCOC(=O)CC1CCN(CCOc2ccc(Oc3ccccc3)cc2)CC1 [Example 300]

molecular target: T1, recombinant human LTA4 hydrolase (Homo sapiens, UniProt P09960); assay: Recombinant Human LTA4 Hydrolase Assay for LTA4 Hydrolase Inhibitor Activity (LTB4 by enzyme-linked immunoassay); format: biochemical; conditions: not given
T1 construct: made in house; host or cells: Spodoptera frugiperda Sf-9 cells, baculovirus (AcNPV) expression vector
T1 sequence (P09960 1-611): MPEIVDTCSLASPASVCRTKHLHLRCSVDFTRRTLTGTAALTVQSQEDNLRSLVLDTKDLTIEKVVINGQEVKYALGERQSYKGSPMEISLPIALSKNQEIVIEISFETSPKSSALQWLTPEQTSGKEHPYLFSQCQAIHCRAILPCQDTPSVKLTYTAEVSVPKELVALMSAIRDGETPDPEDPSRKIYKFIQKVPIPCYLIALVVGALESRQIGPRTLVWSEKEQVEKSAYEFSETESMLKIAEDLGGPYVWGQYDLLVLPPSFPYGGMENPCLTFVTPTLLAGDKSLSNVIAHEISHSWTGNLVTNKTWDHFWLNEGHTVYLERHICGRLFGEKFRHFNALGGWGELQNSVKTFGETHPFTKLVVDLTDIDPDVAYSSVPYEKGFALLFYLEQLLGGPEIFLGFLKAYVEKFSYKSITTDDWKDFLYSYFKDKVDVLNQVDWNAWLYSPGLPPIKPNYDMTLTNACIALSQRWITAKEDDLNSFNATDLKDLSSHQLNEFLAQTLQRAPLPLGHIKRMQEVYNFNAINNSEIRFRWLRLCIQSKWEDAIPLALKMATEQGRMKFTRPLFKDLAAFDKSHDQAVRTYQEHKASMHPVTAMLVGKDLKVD
Method: Compounds of the present invention were tested for LTA4 hydrolase inhibitor activity against recombinant human LTA4 hydrolase (rhLTA4 H). […] Briefly, LTA4 hydrolase encoding DNA was amplified by polymerase chain reaction using a pair of oligonucleotide primers based on the nucleotide sequence from the 5'-end, and the complement of the 3'-end, of the coding region of the LTA4 hydrolase gene, the nucleotide sequence of which gene is known. […] A λgtll human placental cDNA library (Clonetech, Palo Alto, Calif.) provided the nucleic acid template.
One or more predetermined amounts of a compound of the invention were incubated in assay buffer (0.1M potassium phosphate, 5 mg/ml fatty acid free BSA, 10% DMSO, pH 7.4) for 10 minutes at room temperature with 250 ng of recombinant hLT4 H to allow binding, if any, between the enzyme and inhibitor. The stock enzyme solution was 1 mg/ml LTA4 hydrolase, 50 mM Tris, pH 8.0, 150 mM NaCl, 2.5 mM beta-mercaptoethanol, 50% glycerol. […] LTA4 (i.e., substrate) was prepared from the methyl ester of LTA4 (Biomol, Inc., Plymouth Meeting, Pa.) by treating the methyl ester with 30 molar equivalents of LiOH at room temperature for 18 hours. The LTA4 substrate in its free acid form was kept frozen at -80° C. until needed. […] Each reaction was carried out at room temperature for 10 minutes. The reaction was stopped by diluting 25 μl of the reaction mixture with 500 μl of the assay buffer without DMSO. LTB4 was quantified in the diluted sample by a commercially available enzyme-linked immunoassay [Caymen Chemical Co., Ann Arbor, Mich.] using the method recommended in the manufacturer's instructions and compared to the amount of LTB4 produced in a negative control (i.e., essentially identical conditions except without addition of an inhibitor compound). The IC50 was routinely calculated from the data produced.

inhibition at 25 µM	inhibition at 100 µM	inhibition at 3 µM	SMILES
4%	–	–	Cc1ccccc1COc1ccc(OCCN2CCCC2)cc1 [Example 210]
–	44%	–	CCOC(=O)C1CCN(CCOc2ccc(Cc3cccnc3)cc2)CC1 [Example 311]
–	–	51%	Fc1ccc(Oc2ccc(OCCn3cnc4cccnc43)cc2)cc1 [Example 354A]
52%	–	–	O=C(O)c1ccc(Oc2ccc(OCCN3CCCC3)cc2)cc1 [Example 64]
–	15%	–	NC(=O)C1CCCN(CCCOc2ccc(Cc3ccccc3)cc2)C1 (stereo not drawn) [Example 244]
–	–	14%	CC(C)(C)OC(=O)C1CCCN1CCCOc1ccc(Cc2ccccc2)cc1 (stereo not drawn) [Example 260]

same assay, conditions: read-out: Recombinant Human LTA4 Hydrolase Assay IC50 LTA4H

pIC50	SMILES
7.33	c1coc(Cc2ccc(OCCN3CCCC3)cc2)c1 [Example 135]
5.05	NC(=O)C1CCN(CCOc2ccc(Cc3ccccc3)cc2)CC1 [Example 239]
6.32	c1ccc(Cc2ccc(SCCN3CCCC3)cc2)cc1 [Example 68]

SMILES	pIC50
N#CC1CCN(CCOc2ccc(Cc3ccccc3)cc2)CC1 [Example 279]	6.33
